How the values of data set [1] were obtained:
The rotation number of the stirrer was 120 rpm, and all of the tests were conducted in a thermostat at 37±0.5° C. Two types of test solutions, namely, distilled water and 2nd fluid for disintegration test (pH 6.8) of the Japanese Pharmacopoeia were used. As such 2nd fluid for disintegration test of the Japanese Pharmacopoeia, a solution prepared by diluting the 10-fold concentration solution of Kanto Kagaku Co., Ltd. with distilled water was used.
A comparative test was carried out in the same manner as that described above with the exception that a poorly-soluble substance or the like was used in an amount equal to that of a substance with improved aqueous solubility, instead of the substance with improved aqueous solubility.
1 mL of the solution was sampled in an Eppendorf centrifuge tube, 1, 3, 10, 30, 60, 180 and 360 minutes after initiation of the test. The thus sampled solution was centrifuged at 12,000 rpm for 5 minutes. […] In the case of the comparative test, the poorly-soluble substance or the like, which had not been dissolved in the solution, was removed. An aliquot of this supernatant was immediately frozen. The frozen sample was freeze-dried, and it was then used as a sample in the measurement of the amount of the substance with improved aqueous solubility, which had been dissolved in the test solution. The dissolved poorly-soluble substance was measured mainly using a dual wavelength absorption photometer.
Moreover, a comparative test was carried out using silica fume instead of the calcium compound microparticles. Specifically, a coating treatment was carried out according to the same method as that described in the above section “6-1.

Data set [2] in a line: Dissolution test of poorly-soluble substances using distilled water. The following applies: water. Type of data set: physicochemical.
A short description of data set [3]: Dissolution test of poorly-soluble substances using 2nd fluid for disintegration test (pH 6.8) of the Japanese Pharmacopoeia. The format is physicochemical. The following applies: 2nd fluid for disintegration test.
Protocol: From initiation of the test, the mixed solution was stirred with a stirrer having a length of 15 mm. The rotation number of the stirrer was 120 rpm, and all of the tests were conducted in a thermostat at 37±0.5° C. Two types of test solutions, namely, distilled water and 2nd fluid for disintegration test (pH 6.8) of the Japanese Pharmacopoeia were used. As such 2nd fluid for disintegration test of the Japanese Pharmacopoeia, a solution prepared by diluting the 10-fold concentration solution of Kanto Kagaku Co., Ltd. with distilled water was used.
Where [4] appears, read: Estradiol Enanthate, elution time 3 min.
Where [5] appears, read: Estradiol Enanthate, elution time 30 min.
Setting [6] is: Estradiol Enanthate, elution time 120 min.
[7] abbreviates: Estradiol Enanthate, elution time 360 min.
Setting [8] is: Haloperidol, elution time 3 min.
[9] abbreviates: Haloperidol, elution time 10 min.
The mark [10] stands for this setting: Haloperidol, elution time 360 min.
Setting [11] is: Carvedilol, elution time 10 min.
Setting [12] is: Carvedilol, elution time 30 min.
[13] abbreviates: Carvedilol, elution time 120 min.
[14] abbreviates: Carvedilol, elution time 360 min.

Where a name gives a salt, the structure may show the parent alone.

For `N[C@@H](CSCC(=O)O)C(=O)O` [L-carbocysteine], the solubility-improving effect entry in data set [1] is reported as “a solubility-improving effect was obtained”.
Still for that read-out and setting: the same measure for `Clc1ccc2c(c1)C(N1CCNCC1)=Nc1ccccc1O2` [amoxapine]: “a solubility-improving effect was obtained”; for `CC1CNc2c(cccc2S(=O)(=O)N[C@@H](CCCNC(=N)N)C(=O)N2CC[C@@H](C)C[C@@H]2C(=O)O)C1` (stereo partly shown) [argatroban]: “a solubility-improving effect was obtained”; for `C[C@H]1[C@H](NC(=O)/C(=N\OC(C)(C)C(=O)O)c2csc(N)n2)C(=O)N1S(=O)(=O)O` [aztreonam]: “a solubility-improving effect was obtained”.
Still for that read-out and setting: in the case of `CO/N=C(\C(=O)N[C@@H]1C(=O)N2C(C(=O)O)=C(CSc3nnnn3C)CS[C@H]12)c1csc(N)n1` [cefmenoxime hydrochloride] it was “a solubility-improving effect was obtained”.
Turning to `CC(C)(O/N=C(\C(=O)N[C@@H]1C(=O)N2C(C(=O)[O-])=C(C[n+]3ccccc3)CS[C@H]12)c1csc(N)n1)C(=O)O` [ceftazidime], the solubility-improving effect result in data set [1] is “a solubility-improving effect was obtained”.
Same read-out and setting: the same measure for `CN1CCC[C@@H]1CCO[C@](C)(c1ccccc1)c1ccc(Cl)cc1` [clemastine fumarate]: “a solubility-improving effect was obtained”.
`CCCCCCC(=O)O[C@H]1CC[C@H]2[C@@H]3CCc4cc(O)ccc4[C@H]3CC[C@]12C` [compound 44, Estradiol Enanthate]: the Dissolved amount amounted to 1.6 µg/mL in data set [2] (setting [4]); 1.4 µg/mL in data set [2] (Estradiol Enanthate, elution time 10 min); 1.8 µg/mL in data set [2] (setting [5]); 1.6 µg/mL in data set [2] (setting [6]); 1.3 µg/mL in data set [2] (setting [7]); 7.9 µg/mL in data set [3] (setting [4]). The Dissolved amount in data set [3] (setting [5]) turned out to be 7.0 µg/mL; in data set [3] (setting [6]), 19.0 µg/mL; in data set [3] (setting [7]), 10.9 µg/mL.
Take `Nc1ncnc2nc[nH]c12` [compound 45, Adenine]: the Dissolved amount in data set [2] (Adenine, elution time 3 min) worked out at 1478.0 µg/mL; in data set [2] (Adenine, elution time 10 min) it was 1557.3 µg/mL; in data set [2] (Adenine, elution time 30 min), 1646.6 µg/mL; in data set [2] (Adenine, elution time 360 min), 1696.4 µg/mL; in data set [3] (Adenine, elution time 3 min), 1752.2 µg/mL; in data set [3] (Adenine, elution time 10 min), 2028.0 µg/mL. The Dissolved amount in data set [3] (Adenine, elution time 30 min) came to 2001.9 µg/mL; in data set [3] (Adenine, elution time 120 min), 2001.4 µg/mL; in data set [3] (Adenine, elution time 360 min), 1876.8 µg/mL.
For `O=C(CCCN1CCC(O)(c2ccc(Cl)cc2)CC1)c1ccc(F)cc1` [compound 46, Haloperidol], the Dissolved amount in data set [2] (setting [8]) came out at 8.2 µg/mL; in data set [2] (setting [9]) it was 10.0 µg/mL; in data set [2] (Haloperidol, elution time 30 min) it was 11.3 µg/mL; in data set [2] (setting [10]), 13.1 µg/mL; in data set [3] (setting [8]), 23.9 µg/mL; in data set [3] (setting [9]), 35.6 µg/mL. For the same compound, the Dissolved amount amounted to 50.1 µg/mL in data set [3] (Haloperidol, elution time 120 min) and 48.9 µg/mL in data set [3] (setting [10]).
In the case of `COc1ccccc1OCCNCC(O)COc1cccc2[nH]c3ccccc3c12` (stereo not shown) [compound 49, Carvedilol], the Dissolved amount in data set [2] (Carvedilol, elution time 3 min) was 5.2 µg/mL; in data set [2] (setting [11]) it was 8.3 µg/mL; in data set [2] (setting [12]) it was 10.0 µg/mL; in data set [2] (setting [13]) it was 15.0 µg/mL; in data set [2] (setting [14]), 16.0 µg/mL; in data set [3] (Carvedilol, elution time 3 min) it was 13.9 µg/mL. The Dissolved amount in data set [3] (setting [11]) came out at 26.3 µg/mL; in data set [3] (setting [12]) it was 48.6 µg/mL; in data set [3] (setting [13]), 44.1 µg/mL; in data set [3] (setting [14]), 45.1 µg/mL.
Consider `CN(C)/N=N/c1[nH]cnc1C(N)=O` [dacarbazine], for which the solubility-improving effect result in data set [1] is given as “a solubility-improving effect was obtained”.
The same measure, in the same setting: the same measure for `CC(=O)O[C@@]12CO[C@@H]1C[C@H](O)[C@@]1(C)C(=O)[C@H](O)C3=C(C)[C@@H](OC(=O)[C@H](O)[C@@H](NC(=O)OC(C)(C)C)c4ccccc4)C[C@@](O)([C@@H](OC(=O)c4ccccc4)[C@H]21)C3(C)C` [docetaxel hydrate]: “a solubility-improving effect was obtained”; for `C[C@]12CC[C@@H]3c4ccc(OC(=O)c5ccccc5)cc4CC[C@H]3[C@@H]1CC[C@@H]2O` [estradiol benzoate]: “a solubility-improving effect was obtained”.
Still for that read-out and setting: in the case of `CCCCC(=O)O[C@H]1CC[C@H]2[C@@H]3CCc4cc(O)ccc4[C@H]3CC[C@]12C` [estradiol valerate] it was “a solubility-improving effect was obtained”.
Same read-out and setting: the same measure for `C[C@]12CC[C@@H]3c4ccc(O)cc4CC[C@H]3[C@@H]1C[C@@H](O)[C@@H]2O` [estriol]: “a solubility-improving effect was obtained”; for `CC/C=C\C/C=C\C/C=C\C/C=C\C/C=C\CCCC(=O)OCC` [ethyl icosapentate]: “a solubility-improving effect was obtained”; for `CCCCCC(=O)O[C@]1(C(C)=O)CC[C@H]2[C@@H]3CCC4=CC(=O)CC[C@]4(C)[C@H]3CC[C@@]21C` [hydroxyprogesterone caproate]: “a solubility-improving effect was obtained”.
Consider `CC(C)Cc1ccc(C(C)C(=O)O)cc1` (stereo not shown) [ibuprofen], for which the solubility-improving effect entry in data set [1] is reported as “a solubility-improving effect was obtained”.
For `C[C@@H]1[C@H](O)[C@@H](C)/C=C/C=C/CC/C=C/C=C/C=C/C=C/C(O[C@H]2O[C@H](C)[C@@H](O)[C@H](N)[C@@H]2O)CC2O[C@](O)(CC(O)C(O)CCC(O)CC(O)CC(O)CC(=O)O[C@H]1C)CC(O)C2C(=O)O` (stereo partly shown) [nystatin], the solubility-improving effect entry in data set [1] is recorded as “a solubility-improving effect was obtained”.
For the compound `CC(=O)O[C@H]1C(=O)[C@@]2(C)[C@H]([C@H](OC(=O)c3ccccc3)[C@]3(O)C[C@H](OC(=O)[C@H](O)[C@@H](NC(=O)c4ccccc4)c4ccccc4)C(C)=C1C3(C)C)[C@]1(OC(C)=O)CO[C@@H]1C[C@@H]2O` [paclitaxel], the solubility-improving effect result in data set [1] is “a solubility-improving effect was obtained”.
The same measure, in the same setting: in the case of `O=C(O)c1cc(/N=N/c2ccc(S(=O)(=O)Nc3ccccn3)cc2)ccc1O` [salazosulfapyridine] it was “a solubility-improving effect was obtained”.
`C=CC[C@@H]1/C=C(\C)C[C@H](C)C[C@H](OC)[C@H]2O[C@@](O)(C(=O)C(=O)N3CCCC[C@H]3C(=O)O[C@H](/C(C)=C/[C@@H]3CC[C@@H](O)[C@H](OC)C3)[C@H](C)[C@@H](O)CC1=O)[C@H](C)C[C@@H]2OC` [tacrolimus hydrate]: the solubility-improving effect result in data set [1] is given as “a solubility-improving effect was obtained”.
